pIC50: −log10 of the molar value.
Tests used:
D(2) dopamine receptor = D(2) dopamine receptor (Mus musculus, UniProt P61168); assay: Tested for its binding affinity against Dopamine receptor D2; showed no appreciable affinity at concentration specified
[1] = molecular target: Serotonin transporter (Rattus norvegicus); assay: Compound was evaluated for inhibition of 5-HT uptake by measuring its ability to inhibit [3H]paroxetine binding to rat cortical membranes
[2] = molecular target: Muscarinic acetylcholine receptor; assay: Tested for its binding affinity against muscarinic receptor; showed no appreciable affinity at concentration specified; format: protein assay
[3] = molecular target: T1, Alpha-1 adrenergic receptor (Mus musculus, UniProt P97714+P97717+P97718); assay: Tested for its binding affinity against Alpha-1 adrenergic receptor; showed no appreciable affinity at concentration specified; format: protein assay
T1 sequence (P97714 whole entry): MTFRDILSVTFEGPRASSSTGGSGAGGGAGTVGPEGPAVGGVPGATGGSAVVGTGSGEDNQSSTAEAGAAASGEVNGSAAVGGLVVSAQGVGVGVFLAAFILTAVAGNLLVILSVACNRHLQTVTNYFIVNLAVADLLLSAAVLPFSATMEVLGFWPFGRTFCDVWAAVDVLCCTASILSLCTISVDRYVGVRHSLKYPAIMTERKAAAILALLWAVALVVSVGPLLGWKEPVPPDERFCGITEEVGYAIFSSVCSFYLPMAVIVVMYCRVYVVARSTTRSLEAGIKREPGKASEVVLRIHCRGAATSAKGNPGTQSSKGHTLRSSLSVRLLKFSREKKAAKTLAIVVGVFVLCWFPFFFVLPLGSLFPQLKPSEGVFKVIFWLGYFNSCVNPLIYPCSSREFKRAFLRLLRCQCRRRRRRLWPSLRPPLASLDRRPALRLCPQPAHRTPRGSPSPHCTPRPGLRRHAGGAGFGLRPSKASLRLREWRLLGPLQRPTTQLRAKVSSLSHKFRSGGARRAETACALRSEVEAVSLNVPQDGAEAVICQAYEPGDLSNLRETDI
T1 sequence (P97717 whole entry): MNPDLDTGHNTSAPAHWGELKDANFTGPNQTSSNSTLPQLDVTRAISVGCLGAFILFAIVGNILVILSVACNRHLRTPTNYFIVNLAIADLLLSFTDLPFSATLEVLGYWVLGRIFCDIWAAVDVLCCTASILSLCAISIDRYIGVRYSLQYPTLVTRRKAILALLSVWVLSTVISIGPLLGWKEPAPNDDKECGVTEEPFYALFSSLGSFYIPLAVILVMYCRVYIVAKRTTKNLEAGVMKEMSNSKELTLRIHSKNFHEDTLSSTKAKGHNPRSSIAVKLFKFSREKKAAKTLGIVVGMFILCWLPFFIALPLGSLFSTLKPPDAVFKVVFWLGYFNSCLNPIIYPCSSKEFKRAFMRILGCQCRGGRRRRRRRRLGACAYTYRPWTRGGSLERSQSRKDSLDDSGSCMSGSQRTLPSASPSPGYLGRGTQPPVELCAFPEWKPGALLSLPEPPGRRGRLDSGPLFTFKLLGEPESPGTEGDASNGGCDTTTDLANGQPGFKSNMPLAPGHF
T1 sequence (P97718 whole entry): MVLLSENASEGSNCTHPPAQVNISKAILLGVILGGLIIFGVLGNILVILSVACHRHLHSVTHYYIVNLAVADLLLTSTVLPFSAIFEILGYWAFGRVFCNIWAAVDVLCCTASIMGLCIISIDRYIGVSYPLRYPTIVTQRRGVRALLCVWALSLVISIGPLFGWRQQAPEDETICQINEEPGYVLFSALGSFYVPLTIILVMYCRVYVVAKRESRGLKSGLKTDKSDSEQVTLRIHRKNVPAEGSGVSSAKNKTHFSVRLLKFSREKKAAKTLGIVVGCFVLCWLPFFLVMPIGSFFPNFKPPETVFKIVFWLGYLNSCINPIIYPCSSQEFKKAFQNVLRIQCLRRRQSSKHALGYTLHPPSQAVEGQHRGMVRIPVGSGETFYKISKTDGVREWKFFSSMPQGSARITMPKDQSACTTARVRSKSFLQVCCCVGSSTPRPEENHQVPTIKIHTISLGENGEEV

Mus musculus [4] = assay: Effective dose required for half maximal potentiation of head twitches observed with 5-HTP after oral administration (1 hr 30 min); format: functional
Mus musculus [5] = assay: Effective dose required for half maximal potentiation of head twitches observed with 5-HTP after subcutaneous administration (1 hr); format: functional; details: sc

Chain of D(2) dopamine receptor (P61168 whole entry): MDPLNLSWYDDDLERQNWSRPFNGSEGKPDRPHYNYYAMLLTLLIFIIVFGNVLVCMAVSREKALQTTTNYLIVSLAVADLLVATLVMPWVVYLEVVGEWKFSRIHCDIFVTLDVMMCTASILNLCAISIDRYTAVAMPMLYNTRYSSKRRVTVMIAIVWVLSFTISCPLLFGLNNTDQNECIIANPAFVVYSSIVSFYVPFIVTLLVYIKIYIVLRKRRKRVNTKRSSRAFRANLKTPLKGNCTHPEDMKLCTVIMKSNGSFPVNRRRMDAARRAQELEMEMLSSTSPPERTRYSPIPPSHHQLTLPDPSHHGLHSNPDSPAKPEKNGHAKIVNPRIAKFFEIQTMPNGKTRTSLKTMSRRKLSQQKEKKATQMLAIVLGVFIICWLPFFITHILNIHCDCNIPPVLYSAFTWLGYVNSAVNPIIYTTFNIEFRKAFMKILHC

`O=S1(=O)Nc2cccc3cccc(c23)N1CCN1CCC(Cc2c[nH]c3ccc(F)cc23)CC1` gave a pIC50 (D(2) dopamine receptor) of under 7.00, an IC50 [1] of 12 nM and an IC50 [2] of over 100 nM. It also gave an IC50 [3] of over 100 nM.
For `CC1(C)CN(CCN2CCC(Cc3c[nH]c4ccc(F)cc34)CC2)C(=O)c2ccccc21`, the pIC50 (D(2) dopamine receptor) was under 7.00, the ED50 (Mus musculus [4]) was 20 mg/kg and the IC50 [1] was 3.8 nM. The IC50 [2] was over 100 nM and the IC50 [3] was over 100 nM.
Molecule `CNCCC(Oc1ccc(C(F)(F)F)cc1)c1ccccc1` (stereo not drawn) [FLUOXETINE] has an ED50 (Mus musculus [5]) of 6.3 mg/kg.
`COC1=Nc2cccc3cccc(c23)N1CCN1CCC(Cc2c[nH]c3ccc(F)cc23)CC1` showed a pIC50 (D(2) dopamine receptor) of under 7.00, an IC50 [1] of 22.6 nM and an IC50 [2] of over 100 nM. It also gave an IC50 [3] of over 100 nM.
`O=C1Cc2ccccc2N1CCN1CCC(Cc2c[nH]c3ccc(F)cc23)CC1` showed a pIC50 (D(2) dopamine receptor) of under 7.00, an IC50 [1] of 3.1 nM and an IC50 [2] of over 100 nM. The IC50 [3] was over 100 nM.
In the case of `O=S1(=O)N(CCN2CCC(Cc3c[nH]c4ccc(F)cc34)CC2)c2cccc3c2N1CCC3` [RP-68303], the ED50 (Mus musculus [5]) was 5.1 mg/kg and the IC50 [1] was 1.2 nM.
Work on `O=C1N(CCN2CCC(Cc3c[nH]c4ccc(F)cc34)CC2)c2ccccc2C12CC2` yielded a pIC50 (D(2) dopamine receptor) of under 7.00, an ED50 (Mus musculus [4]) of over 20 mg/kg and an IC50 [1] of 4 nM. For the same molecule, the IC50 [2] was over 100 nM and the IC50 [3] was over 100 nM.
Molecule `O=C1Nc2cccc3cccc(c23)N1CCN1CCC(Cc2c[nH]c3ccc(F)cc23)CC1` has an ED50 (Mus musculus [5]) of 4 mg/kg, a pIC50 (D(2) dopamine receptor) of under 7.00 and an ED50 (Mus musculus [4]) of 2 mg/kg. For the same molecule, the IC50 [1] was 1.5 nM, the IC50 [2] was over 100 nM and the IC50 [3] was over 100 nM.
`O=c1[nH]c2ccccc2c(=O)n1CCN1CCC(Cc2c[nH]c3ccc(F)cc23)CC1` was tested, and the pIC50 (D(2) dopamine receptor) was under 7.00, the ED50 (Mus musculus [4]) was 20 mg/kg and the IC50 [1] was 0.5 nM. For the same molecule, the IC50 [2] was over 100 nM and the IC50 [3] was over 100 nM.
Molecule `C[Si]1(C)CN(CCN2CCC(Cc3c[nH]c4ccc(F)cc34)CC2)S(=O)(=O)c2ccccc21` has a pIC50 (D(2) dopamine receptor) of under 7.00, an IC50 [2] of over 100 nM and an IC50 [3] of over 100 nM.
For `Cn1c(=O)c2ccccc2n(CCN2CCC(Cc3c[nH]c4ccc(F)cc34)CC2)c1=O`, the pIC50 (D(2) dopamine receptor) was under 7.00, the ED50 (Mus musculus [4]) was 20 mg/kg and the IC50 [1] was 5.9 nM. For the same molecule, the IC50 [2] was over 100 nM and the IC50 [3] was over 100 nM.
`O=S(=O)(NCCN1CCC(Cc2c[nH]c3ccc(F)cc23)CC1)c1ccccc1` gave a pIC50 (D(2) dopamine receptor) of under 7.00, an ED50 (Mus musculus [4]) of over 20 mg/kg and an IC50 [1] of 6 nM. It also gave an IC50 [2] of over 100 nM and an IC50 [3] of over 100 nM.
`O=C1c2cccc3cccc(c23)C(=O)N1CCN1CCC(Cc2c[nH]c3ccc(F)cc23)CC1` gave an ED50 (Mus musculus [5]) of 6.1 mg/kg, a pIC50 (D(2) dopamine receptor) of under 7.00 and an ED50 (Mus musculus [4]) of 2.3 mg/kg. It also gave an IC50 [2] of over 100 nM and an IC50 [3] of over 100 nM.
`O=C1CN(CCN2CCC(Cc3c[nH]c4ccc(F)cc34)CC2)S(=O)(=O)c2ccccc21` was tested, and the pIC50 (D(2) dopamine receptor) was under 7.00, the ED50 (Mus musculus [4]) was over 20 mg/kg and the IC50 [2] was over 100 nM. It also gave an IC50 [3] of over 100 nM.
`CN1c2cccc3cccc(c23)N(CCN2CCC(Cc3c[nH]c4ccc(F)cc34)CC2)S1(=O)=O` was tested, and the pIC50 (D(2) dopamine receptor) was under 7.00, the ED50 (Mus musculus [4]) was over 20 mg/kg and the IC50 [1] was 3.7 nM. It also gave an IC50 [2] of over 100 nM and an IC50 [3] of over 100 nM.
`CN(CCN1CCC(Cc2c[nH]c3ccc(F)cc23)CC1)S(=O)(=O)c1ccccc1` was tested, and the pIC50 (D(2) dopamine receptor) was under 7.00, the IC50 [1] was 30 nM and the IC50 [2] was over 100 nM. For the same molecule, the IC50 [3] was over 100 nM.
With `C[Si]1(C)CN(CCN2CCC(Cc3c[nH]c4ccc(F)cc34)CC2)C(=O)c2ccccc21` the pIC50 (D(2) dopamine receptor) was under 7.00, the ED50 (Mus musculus [4]) was over 20 mg/kg and the IC50 [1] was 2.6 nM. It also gave an IC50 [2] of over 100 nM and an IC50 [3] of over 100 nM.
Molecule `O=C1Nc2ccccc2S(=O)(=O)N1CCN1CCC(Cc2c[nH]c3ccc(F)cc23)CC1` has a pIC50 (D(2) dopamine receptor) of under 7.00, an ED50 (Mus musculus [4]) of over 20 mg/kg and an IC50 [1] of 2.1 nM. It also gave an IC50 [2] of over 100 nM and an IC50 [3] of over 100 nM.
With `O=C1CSc2ccccc2N1CCN1CCC(Cc2c[nH]c3ccc(F)cc23)CC1` the pIC50 (D(2) dopamine receptor) was under 7.00, the ED50 (Mus musculus [4]) was over 20 mg/kg and the IC50 [1] was 1.1 nM. The IC50 [2] was over 100 nM and the IC50 [3] was over 100 nM.
Work on `O=S1(=O)c2ccccc2CN1CCN1CCC(Cc2c[nH]c3ccc(F)cc23)CC1` yielded an ED50 (Mus musculus [5]) of 4.5 mg/kg, a pIC50 (D(2) dopamine receptor) of under 7.00 and an ED50 (Mus musculus [4]) of 7.2 mg/kg. For the same molecule, the IC50 [1] was 1 nM, the IC50 [2] was over 100 nM and the IC50 [3] was over 100 nM.

Source: ChEMBL document CHEMBL1127103, “New indole derivatives as potent and selective serotonin uptake inhibitors” (Bioorg Med Chem Lett, 1993)
